# Source: article PMC4331650 (Biochimica et Biophysica Acta, 2014)
# Molecular target: T1, N257A CLC-Ka (Homo sapiens, UniProt P51800, N257A)
# T1 sequence (P51800 1-687 N257A): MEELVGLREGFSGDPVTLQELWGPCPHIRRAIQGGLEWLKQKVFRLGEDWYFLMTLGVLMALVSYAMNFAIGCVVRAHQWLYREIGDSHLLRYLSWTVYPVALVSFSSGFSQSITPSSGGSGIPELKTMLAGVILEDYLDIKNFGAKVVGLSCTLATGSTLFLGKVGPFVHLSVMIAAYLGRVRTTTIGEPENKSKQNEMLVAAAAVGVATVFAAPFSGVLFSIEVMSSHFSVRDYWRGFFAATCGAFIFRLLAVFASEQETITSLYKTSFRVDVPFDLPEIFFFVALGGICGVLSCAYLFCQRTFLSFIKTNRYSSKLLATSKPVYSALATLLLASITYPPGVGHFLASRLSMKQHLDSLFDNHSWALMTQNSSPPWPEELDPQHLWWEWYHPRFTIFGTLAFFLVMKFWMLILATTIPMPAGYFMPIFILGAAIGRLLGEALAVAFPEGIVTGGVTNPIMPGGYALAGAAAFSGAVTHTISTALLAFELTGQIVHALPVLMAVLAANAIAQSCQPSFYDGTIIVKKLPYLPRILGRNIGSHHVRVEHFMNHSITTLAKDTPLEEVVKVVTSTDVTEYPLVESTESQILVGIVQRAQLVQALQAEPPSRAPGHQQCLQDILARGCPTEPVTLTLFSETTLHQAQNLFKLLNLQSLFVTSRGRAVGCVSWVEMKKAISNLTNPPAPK
# T1 sequence (Q8WZ55 1-320 Y98A partner): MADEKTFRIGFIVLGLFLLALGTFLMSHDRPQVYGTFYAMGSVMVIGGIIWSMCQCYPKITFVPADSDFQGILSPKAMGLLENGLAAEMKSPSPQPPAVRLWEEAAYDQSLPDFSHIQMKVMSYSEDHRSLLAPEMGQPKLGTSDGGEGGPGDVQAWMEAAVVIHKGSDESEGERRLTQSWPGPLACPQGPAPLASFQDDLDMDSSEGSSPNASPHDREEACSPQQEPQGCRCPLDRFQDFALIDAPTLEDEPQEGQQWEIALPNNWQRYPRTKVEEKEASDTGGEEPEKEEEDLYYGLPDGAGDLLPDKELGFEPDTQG
# Experiment: NFA effect on N257A CLC-Ka currents, voltage clamp in Xenopus oocytes
# Type: cell-based
smiles,measurement,setting,value
"O=C(O)c1cccnc1Nc1cccc(C(F)(F)F)c1 [NFA, niflumic acid]",effect of NFA on currents,"all [NFA]ext tested, from 1 to 2000 μM",only blocked
same,inhibition at 5 µM,read-out: inhibition of currents,~90%
